“Also recorded” adds a separate entry of the source. Structures can show the parent of a compound that is named as a salt.
Key:
[1] = Total antioxidant capacity of graft, SITx with 6 hours preservation; format: in vivo, LEW rats
Text: Antioxidant capacity after BV treatment. the total antioxidant capacity or antioxidant power within the graft specimens was quantitatively measured. Antioxidant levels in the graft were detected using Total Antioxidant Power® (Oxford Biomedical Research, Oxford, Mich.), according to the manufacturer's instructions. In this procedure, the evaluation of the antioxidant level in a sample is detected by evaluation of Cu^+ derived from Cu^++ by the combined action of all antioxidants present in the sample.

B6AF1 splenocytes = test: Mixed lymphocyte culture (irradiated DBA/2 splenocytes as stimulators) in vitro; format: cell-based, mouse; conditions: biliverdin 10 μM
Description: Mixed lymphocyte culture (MLC). Irradiated (25Gy, ^137Cs) DBA/2 splenocytes (5×10^5/well) were co-cultured with responders (5×10^5/well) in a 96 well round bottom plates for 3 days at 37° C., 95% air with 5% CO2. When using cells from cardiac recipients as responders, the co-culture period was 3 days without any further in vitro treatment. ^3H-thymidine (1 μCi/well) was added 16 hours before termination of cell culture, and ^3H-thymidine incorporation was measured.

IL-10 = test: Real time RT-PCR of graft muscularis after SITx, IL-10; format: in vivo, LEW rats; conditions: BV treatment, 4 hours
Description: Small Intestinal Transplantation. Orthotopic small intestinal transplantation (SITx) was performed in syngeneic Lewis rats. SITx with caval drainage was performed using a previously described procedure (Murase et al., in Handbook of Animal Models in Transplantation Research, Cramer et al., Eds. CRC Press, Boca Raton, Fla., pp. 203-213 (1994)). […] The graft was perfused via the aortic segment with 5 ml chilled Ringer's lactate solution, and the intestinal lumen was irrigated with 20 ml of cold saline solution containing 0.5% neomycin-sulfate (Sigma, St. Louis, Mo.). […]
SYBR green real time RT-PCR. The effects of administration of biliverdin on transplant-induced pro-inflammatory and anti-inflammatory gene expression were assessed in muscularis extracts by RT-PCR Biliverdin ([…], i.p.) was administered to both the donor and recipient three hours preoperatively. […] Equal aliquots (5 μg) of total RNA from each sample were quantified by spectrophotometry (wavelength […]) and aliquoted at a concentration of 40 ng/μl. Peak mRNA expression was quantified in duplicate by SYBR Green two-step, real-time RT-PCR. […] Real-time PCR data were plotted as the ΔRn fluorescence signal versus the cycle number. […] Quantification of mRNA expression was normalized to GAPDH and calculated relative to control using the comparative CT method (Schmittgen et al., J. Biochem. Biophys. Methods 46(1-2):69-8, 2000). […]

[2] = tested on: jejunal circular muscle strips; test: Jejunal circular muscle contractility after small intestinal transplantation (organ bath); format: in vivo, LEW rats
Description: Small Intestinal Transplantation. Orthotopic small intestinal transplantation (SITx) was performed in syngeneic Lewis rats. SITx with caval drainage was performed using a previously described procedure (Murase et al., in Handbook of Animal Models in Transplantation Research, Cramer et al., Eds. CRC Press, Boca Raton, Fla., pp. 203-213 (1994)). […] The graft was perfused via the aortic segment with 5 ml chilled Ringer's lactate solution, and the intestinal lumen was irrigated with 20 ml of cold saline solution containing 0.5% neomycin-sulfate (Sigma, St. Louis, Mo.). End-to-side anastomoses between the graft aorta and the recipient infrarenal aorta, and between the graft portal vein and recipient vena cava, were performed with 10-0 Novafil™ suture. The cold ischemic time was 1 hour. The entire recipient intestine was removed and the enteric continuity was restored by proximal and distal end-to-end intestinal anastomoses. Recipient animals were given 20 mg/day prophylactic cefamandole nafate for 3 postoperative days. Transplanted recipients were given water 3 hours after surgery, and were fed 24 hours after surgery.
Motility Studies. The effect of administration of biliverdin on treatment on intestinal dysmotility in transplanted grafts was assessed both in vitro and in vivo. […] In vitro circular muscle mechanical activity was measured as previously described (Eskandari et al., Am. J. Physiol. 273(3 Pt 1):G727-34, 1997). Rats were anesthetized and killed by exsanguination 24 hours post-operatively. A segment of mid-jejunum was pinned in a Sylgaard™ lined dissecting dish containing pre-oxygenated Krebs-Ringer-bicarbonate buffer (KRB; in mM: 137.4 Na^+, 5.9 K^+, 2.5 Ca^2+, 1.2 Mg^2+, 134 Cl^−, 15.5 HCO3^−, 1.2 H2PO4^−, and 11.5 glucose) that was equilibrated with 97% O2/3% CO2. […] Contractile activity was calculated by integrating the area under the trace, normalized by converting the weight and length of the strip to square millimeters of tissue (1.03 mg/mm^2), and reported as g/s/mm^2. […]

## C=CC1=C(C)/C(=C/C2=NC(=C\c3[nH]c(/C=C4\NC(=O)C(C)=C4C=C)c(C)c3CCC(=O)O)/C(CCC(=O)O)=C2C)NC1=O [biliverdin, biliverdin dihydrochloride]
[1]
  antioxidant capacity of the transplanted intestine: increased the antioxidant capacity of the transplanted intestine to normal levels
B6AF1 splenocytes
  alloantigen mediated T cell activation (proliferation): significant suppressive effect
IL-10
  upregulation of IL-10 mRNA caused by transplantation: did not significantly change
[2]; control (unoperated) animals treated with BV
  spontaneous muscle contractile activity: no change
[2]; grafts in recipients treated with BV, compared to untreated transplants, 24 hours
  spontaneous contractile activity: significantly greater
[2]; transplanted animals treated with BV versus untreated graft muscles, 24 hours, listed as BV, dihydrochloride
  bethanechol-stimulated muscle contractility: significantly improved; also recorded: Significant improvement

Reference: US8097585B2, “Methods of treating inflammation by administration of heme oxygenase-1 and products of heme degradation” (priority 2002, dated 2012)
